Measured values reported in patent publication US20050266024A1 (priority 2002, published 2005).
Entries after “also recorded” stand apart in the source; their conditions may differ. Like-named read-outs stand apart in the source and are kept apart here.

Tests used:
[1] = system: Balb/C mice; assay: Anti-sAg and anti-cAg antibody ELISAs after PMID with HBV sAg/cAg plasmid; format: in vivo; settings: Example 7
[2] = system: Balb/C mice; assay: CD8 IFN-g ELISA of spleen cells after HBsAg DNA vaccine; format: in vivo; settings: Example 2; prime and boost
Source text: (§1) For immunization with the Hepatitis B surface antigen (HBsAg) a plasmid containing the HCMV promoter/enhancer was used to drive expression of the HBsAg. For one experiment we also employed a plasmid in which the keratin 14 promoter was used instead of the HCMV promoter. This promoter is expected to have a more restricted pattern of expression and be expressed only in the skin unlike the HCMV promoter that is expressed in many cell types.
(§2) The cream is a 5% solution.
Mice were immunized with a DNA vaccine containing a HBsAg expressing plasmid using either a high dose (1 ug) or low dose (50 ng) of vaccine. […] One group was also treated for three days (day 0, 1 and 2). […] Results shown in FIG. 1 are from the CD8 IFN-g ELISA. […] The values are the means from 4 individual mice.

[3] = system: Balb/C mice; format: in vivo; settings: Example 7; first experiment, prime only
[4] = system: Balb/C mice; format: in vivo; settings: for g-IFN secretion: first experiment
Description: Two further experiments were performed to assess the efficacy of imiquimod (Aldara cream) as an adjuvant for particle-mediated immunization with DNA (PMD). Both experiments used a plasmid expressing HBV sAg and cAg as a test vaccine. […] Readouts included antibody titers and cytokine ELISPOTs to the two antigens.
Groups of 5-10 Balb/c mice were vaccinated on the shaved abdomen with one shot each on day 0 (prime only) or days 0 and 28 (prime and boost). PMID was administered using an ND5.5 device with a payload of 1 mg Au and a 35 bar cylinder. […] In experiment one, a small, unmnetered amount of Aldara was delivered at the indicated times using a cotton swab to rub the cream in. […] The control cream was an over the counter hand cream which contained many of the same ingredients as the Aldara base cream.
Mice were bled retro-orbitally at 4 weeks for prime/boost groups. Blood was collected by intracardiac puncture, and spleens were removed for cellular assays at sacrifice at either week 2 (prime only) or week 6 (boost+2 weeks). Sera were analyzed for anti-sAg and anti-cAg antibodies using in-house ELISAs. Spleen cells from individual mice were stimulated with protein or peptide for g-IFN and IL-4 ELISPOT assays. Three sets of antigen were used: 1) intact cAg from Biodesign; 2) a library of overlapping sAg peptides (15 mers offset by 3 amino acids synthesized by Chiron); and 3) an immunodominant peptide from sAg (amino acids 28-39) known to bind the MHC class I molecule Ld. Specific spot-forming cells were calculated by subtracting the number of spots generated with cells cultured in medium alone.

[5] = system: Balb/C mice; assay: IFN-g ELISPOT of spleen cells after HBsAg DNA vaccine; settings: Example 2; prime and boost
[6] = system: Balb/C mice; assay: Serum antibody ELISA (HBsAg) after HBsAg DNA vaccine; format: in vivo; settings: Example 2; prime and boost, HBsAg plasmid with HCMV promoter; FIG. 3
Description: as §1, §2
Serum samples were assayed for antibodies using an BLISA assay. Falcon Pro Bind microtiter plates were coated overnight at 4° C. with antigen in PBS (phosphate buffered saline, BioWhittaker). For HBsAg BLISA the antigen was purified HBsAg (BioDesign) at 0.1 ug per well, and for HSV ELISAs the antigen was 5 ug per well of an infected cell extract (Advanced Biotechnolgies Incorporated). […]
Plates were washed 3× and a biotinylated goat anti-mouse antibody (Southern Biotechnology) diluted 1:8000 in dilution buffer was added to the plate and incubated for 1 hr at RT. […] Optical density was read at 450 nm. Endpoint titers for HBsAg were calculated by comparison of the samples with a standard of known titer.

[7] = system: Balb/C mice; assay: Cellular immune responses after HBsAg DNA vaccine (assay not specified); format: in vivo; settings: as stated in Example 6
Source text: This experiment includes a plasmid that expresses HBsAg from the keratin 14 promoter. This was used to try and alter the expression of the antigen in different cell types and see if this affects the immune response. Mice were immunized twice.

[8] = system: Balb/C mice; assay: ELISA for subclass of HBsAg specific antibody (IgG1/IgG2a); format: in vivo; settings: Example 6; serum samples from different experiments; FIG. 15
[9] = system: Balb/C mice; assay: Resiquimod adjuvant test: cellular immune responses (CD8 ELISPOT) after HBsAg DNA vaccine; format: in vivo; settings: Example 16, topical
Description: Resiquimod is delivered topically to the abdominal skin of Balb/c mice on either day −2, −1, 0, 1, 2 or 3 relative to immunization on day 0. Immunization utilizes a DNA vaccine that expresses the Hepatitis B surface antigen so that cellular and antibody responses found after treatment with Resiquimod can be evaluated and compared to a wealth of historical data. The formulation consists of either a 0.05% cream, or a DMSO solution (approximately 5 mg/ml). Ideally both types of formula are tested. One half of the mice are sacrificed 7 days after immunization to measure cellular immune responses (CD8 ELISPOT). The remaining mice are bled 28 days after immunization, boosted with the same schedule as the priming immunization and then sacrificed 2 weeks later to test for antibody and cellular responses. Serum is used to test for antibody titer and to evaluation subclass distribution of IgG antibodies indicating the bias of the immune response.
For immunization DNA vaccine plasmids with a well-known immune response are employed. Plasmid WRG7128 is a likely choice which expresses the Hepatitis B surface antigen (HBsAg) using the HCMV promoter/enhancer and generates a cellular and antibody response.
Resiquimod is formulated as either a 0.05% cream, or a 5 mg/ml solution in DMSO. To apply the cream, it is rubbed onto the abdomens of mice using a cotton swab. […]

SMILES: CC(C)Cn1cnc2c(N)nc3ccccc3c21 [imiquimod, 1-(2-methyl-propyl)-1H-imidazo[4,5-c]quinolin-4-amine]
- antibody titers / antibody responses to HBV sAg and cAg [1]: little effect; also recorded: did not enhance antibody responses
- cellular response (IFN-g ELISA) [2]: enhanced the responses
- IL-4 ELISPOTs / IL-4 secretion [3]: little effect; also recorded: no effect
- g-IFN ELISPOT response to class I-restricted peptide (CD8+ cells) ([4]; Example 7, first experiment, compared with sAg peptide library response): comaparable responses were seen
- optimal time point for augmenting g-IFN-secreting cells ([4]; Example 7, time after PMID): about a day and upto 7 days after PMID
- g-IFN secretion ([4]; highest dose of DNA, delivered right before or right after): slightly inhibitory
- g-IFN secretion ([4]; highest dose of DNA, given 24 hours after): augments PMID
- g-IFN secretion ([4]; low doses of DNA, administration 24 hours post PMID): most effective
- g-IFN secretion ([4]; low doses of HBV-encoding DNA, all three time points): enhances g-IFN secretion
- cellular response (ELISPOTs) [5]: enhanced the responses
- antibody levels [6]: strong reduction in antibody levels

SMILES: CCCCC[C@H](O)/C=C/[C@H]1[C@H](O)CC(=O)[C@@H]1C/C=C\CCCC(=O)O [PGE2]
- cellular responses [7]: can enhance cellular responses
- ratio of IgG1/IgG2a of HBsAg specific antibody [8]: does not have the same effect overall

SMILES: CCOCc1nc2c(N)nc3ccccc3c2n1CC(C)(C)O [Resiquimod, 4-amino-2-ethoxymethyl-alpha,alpha-dimethyl-1H-imidazo [4,5-c]quinoline-1-ethanol]
- cellular immune response [9]: boost in the cellular immune response
- immune responses to the DNA vaccines ([9]; before or after immunization): enhances immune responses
